Assay results reported in patent US10179770B2, “Quinolines derivatives as novel anticancer agents” (GENOSCIENCE PHARMA, priority 2013, dated 2019).
pEC50: −log10 of the molar value. Structures can show the parent of a compound that is named as a salt. Where two headings read alike, the source gives them in different places.

Tests used:
HepG2 = experiment: EC50 determination in cancer cell lines; format: cell-based, human
Method: (§1) Compounds were added at different concentrations to each well, and cell cultures were incubated for 72 h. Vehicle (DMSO or H2O) was used as a control, and all compounds were tested in a constant percentage of vehicle. Cell outgrowth was measured using for adherent cells CellTiter […] Aqueous One Solution Cell Proliferation Assay (Promega) and for cell suspension, Sulforhodamine B colorimetric assay as described in Vichai et al. (Vichai, V. and Kirtikara, K. Nat. Protoc. 2006 (1) 1112-1116). Absorbance was measured using an Infinite F200 Pro or Sunrise TECAN plate reader.
(§2) The human melanoma cell line A375, colorectal carcinoma cell line HCT-116, hepatocellular carcinoma cell line HepG2 were cultured in Dulbecco's modified Eagle's medium supplemented with 10% fetal bovine serum and 1% Penicillin-Streptomycin. The human melanoma cell lines SK-MEL-28 and SK-MEL-5 were cultured in Minimum Essential Medium. The colorectal carcinoma cell lines HT-29 and Colo205 were respectively cultured in Mc Coy's and RPMI media. The human leukemia cell lines MV4-11 and KG-1 were cultured in Iscove's Modified Dulbecco's Media. The human leukemia cell line MOLM-14 was cultured in Minimum Essential Medium Alpha Medium supplemented with 10% Fetal Bovine Serum and 1% Penicillin-Streptomycin All culture media were supplemented with 10% fetal bovine serum and 1% Penicillin-Streptomycin except for MV4-11 cell line 20% fetal bovine serum and 1% Penicillin-Streptomycin. All the cell lines were maintained at 37° C. with 5% C02.
(§3) Briefly, adherent cells, A375, HCT-116, HepG2, SK-MEL-28, SK-MEL-5, HT-29 and Colo205 cells were respectively plated at 800, 5,000, 7,000, 2,500, 3,000-5,000, 5,000 or 5,000 cells per well onto 96-well plates in 90 μL of media per well and were allowed to grow overnight before the assay. For MV4-11 and KG-1 cells that grow in suspension, 40,000-60,000 cells were plated onto 96-well plates immediately before the assay. MOLM-14 cell line, that grow in suspension, 30,000 cells were plated onto 96-well plates immediately before the assay.
(§4) The cell growth measure was the same as described in example 51.
(§5) The experimental data are analyzed using a computer program, Graphpad Prism (GraphPad Software, Inc. La Jolla, Calif.) and EC50 values were determined as the dose of compound required to reduce absorbance values to 50% of the signal obtained for vehicle treated cell cultures and were a mean of at least two independent experiments except for EC50 values with (*) where […].

A-375 = experiment: EC50 determination in cancer cell lines; format: cell-based, human
Method: as §1, §2, §3, §4, §5

HCT-116 [1] = experiment: EC50 determination in cancer cell lines; format: cell-based, human
Method: as §1, §2
Briefly, adherent cells, A375, HCT-116, HepG2, SK-MEL-28, SK-MEL-5, HT-29 and Colo205 cells were respectively plated at 800, 5,000, 7,000, 2,500, 3,000-5,000, 5,000 or 5,000 cells per well onto 96-well plates in 90 μL of media per well and were allowed to grow overnight before the assay. For MV4-11 and KG-1 cells that grow in suspension, 40,000-60,000 cells were plated onto 96-well plates immediately before the assay. MOLM-14 cell line, that grow in suspension, 30,000 cells were plated onto 96-well plates immediately before the assay. […]
as §5

MOLM-14 [2] = experiment: Cell proliferation assay at 10 μM; format: cell-based, human; settings: Homo sapiens, read-out: Cell viability observed at 10 μM
Method: (§6) The human melanoma cell line A375 and colorectal carcinoma cell line HCT-116 were cultured in Dulbecco's modified Eagle's medium supplemented with 10% fetal bovine serum and 1% Penicillin-Streptomycin. The human leukemia cell line MOLM-14 was cultured in Minimum Essential Medium Alpha Medium supplemented with 10% Fetal Bovine Serum and 1% Penicillin-Streptomycin. All the cell lines were maintained at 37° C. with 5% CO2.
For MOLM-14 cell line, which grows in suspension, 30,000 cells were plated onto 96-well plates immediately before the assay.
as §1
(§7) In each experiment, each point represents the average of two replicates in cell culture.
(§8) Results are presented in Table 1 below for concentrations of 10 μM of tested compounds.

HCT-116 [3] = experiment: Cell proliferation assay at 10 μM; format: cell-based; settings: Homo sapiens, HCT-116, 72 h, read-out: Cell viability observed at 10 μM
Method: as §6
(§9) Briefly, adherent cells, A375 and HCT-116 cells were respectively plated at 800 or 5,000 cells per well onto 96-well plates in 90 μL of media per well and were allowed to grow overnight before the assay.
as §1, §7, §8

MOLM-14 [4] = experiment: EC50 determination in cancer cell lines; format: cell-based; settings: Homo sapiens, 72 h
Method: as §1, §2, §3, §4, §5

A375 = experiment: Cell proliferation assay at 10 μM; format: cell-based, human; settings: Homo sapiens, read-out: Cell viability observed at 10 μM
Method: as §6, §9, §1, §7, §8

[5] = test system: patient derived acute myeloid leukemia (AML) cell lines; experiment: Cell growth inhibition assay, patient derived AML cells; format: cell-based, human; settings: 48 h
Method: The patient derived acute myeloid leukemia (AML) cells were obtained after written informed consent under the Institut Paoli Calmette (IPC) institutional review board approval and under the strict compliance of the Helsinki declaration on medical research involving human subjects. […] Each compound was added at different concentrations (combinations of six concentrations) to each well, and cell cultures were incubated for 48 h. Vehicle (H2O) was used as a control, and all compounds were tested in a constant percentage of vehicle. Cell outgrowth was measured using the CellTiter-Glo luminescent cell viability assay as described by the manufacturer (Promega, Ref G7571 Madison, Wis., USA) using a Centro (Berthold, France) plate reader. In each experiment, each point represents the average of triplicates in cell culture. The experimental data are analyzed using a computer program, Graphpad Prism (GraphPad Software, Inc.

[6] = test system: PBMC Healthy voluntary donor; experiment: Cell growth inhibition assay, PBMC of healthy donors; format: cell-based, human; settings: PBMC Healthy voluntary donor 1
Method: Each compound was added at different concentrations (combinations of six concentrations) to each well, and cell cultures were incubated for 48 h. Vehicle (H2O) was used as a control, and all compounds were tested in a constant percentage of vehicle. Cell outgrowth was measured using the CellTiter-Glo luminescent cell viability assay as described by the manufacturer (Promega, Ref G7571 Madison, Wis., USA) using a Centro (Berthold, France) plate reader. In each experiment, each point represents the average of triplicates in cell culture. The experimental data are analyzed using a computer program, Graphpad Prism (GraphPad Software, Inc.

Structure (SMILES) | pEC50 (HepG2; Homo sapiens, HepG2, 72 h) | pEC50 (A-375; Homo sapiens, A-375, 72 h) | pEC50 (HCT-116 [1]; Homo sapiens, HCT-116, 72 h) | viability at 10 µM (MOLM-14 [2]; MOLM-14, 72 h) [%] | viability at 10 µM (HCT-116 [3]) [%] | pEC50 (MOLM-14 [4]) | viability at 10 µM (A375; A-375, 72 h) [%] | further results
CCN(CC)C1CCN(c2cc(-c3ccc(-c4ccccc4)cc3)nc3ccccc23)CC1 [IX-2, 2-(1,1′-biphenyl)-4-yl-4-(4-N,N-diethylamino-piperidin-1-yl)quinoline dihydrochloride] | 4.89 | 5.52 | 5.40 | < 20 | < 20 | 5.40 | < 20 | –
CCN(CC)C1CCN(C(C)c2cc(-c3ccccc3)nc3cc(Cl)ccc23)CC1 (stereo not drawn) [XVI-4, 7-Chloro-2-phenyl-4-{1-[4-(N,N-diethylamino)-piperidin-1-yl]-eth-1-yl}quinoline dihydrochloride] | 4.89 | 5.40 | 5.22 | < 20 | < 20 | 5.22 | < 20 | –
COc1ccc(-c2cc(N3CCC(NC(C)(C)C)CC3)c3ccccc3n2)cc1 [XV-8, 2-(4-methoxy-phenyl)-4-(4-N-tert-butylamino-piperidin-1-yl)quinoline dihydrochloride] | 4.57 | 5.00 | 4.77 | < 20 | > 80 | 5.52 | 20 to 40 | –
CCN(CC)C1CCN(c2cc(-c3ccccc3)nc3cc(Cl)ccc23)CC1 [II-3, 7-chloro-2-phenyl-4-(4-N,N-diethylamino-piperidin-1-yl)quinoline] | 5.10 | 5.52 | 5.40 | – | – | 5.30 | – | –
CCN(CC)C1CCN(Cc2cc(-c3ccccc3)nc3cc(Cl)ccc23)CC1 [XVII-6, 7-Chloro-2-phenyl-4-[4-(N,N-diethylamino)-piperidin-1-ylmethyl]quinoline dihydrochloride] | 5.10 | 5.52 | 5.40 | < 20 | < 20 | 5.30 | < 20 | –
CN(C)CCCNc1cc(-c2ccccc2)nc2ccccc12 [XL-2, N^1,N^1-dimethyl-N^3-(2-phenylquinoline-4-yl)propane-1,3-diamine trifluoroacetate salt] | 4.77 | 5.52 | 5.30 | – | – | 5.52 | – | viability at 10 µM (MOLM-14 [2]; MOLM-14, 10 μM, 72 h, % of cell viability remaining): < 20%; viability at 10 µM (HCT-116 [3]; HCT-116, 10 μM, 72 h, % of cell viability remaining): 20 to 40%; viability at 10 µM (A375; A-375, A375, 10 μM, 72 h, % of cell viability remaining): < 20%
CCN(CC)C1CCN(c2cc(-c3ccc4ccccc4c3)nc3ccccc23)CC1 [VI-5, 2-(2-naphtyl)-4-(4-N,N-diethylamino-piperidin-1-yl)quinoline] | 4.96 | 5.40 | 5.22 | – | – | 5.30 | – | –
Nc1ccn([C@@H]2O[C@H](CO)[C@@H](O)[C@@H]2O)c(=O)n1 [AraC, cytosine arabinoside, reference compound] | – | – | – | – | – | – | – | pEC50 ([5]; Patient 3, subtype Tri8): 4.36; pEC50 ([5]; Patient 8, subtype FLT3−): 4.29; pEC50 ([5]; Patient 9, subtype FLT3+): 4.68; pEC50 ([5]; Patient 10, subtype Inv 3): 4.44; pEC50 ([5]; Patient 12, subtype 5 & 7): < 4.40; pEC50 ([5]; Patient 13, subtype MLL): 5.52; pEC50 ([5]; Patient 16, subtype Inv 3): 4.96; pEC50 [6]: 4.89
CN(C)CCCNc1cc(-c2ccccc2)nc2ccccc12 [XLI-1, N^1,N^1-dimethyl-N^3-(2-phenylquinoline-4-yl)propane-1,3-diamine] | – | – | – | – | – | – | – | pEC50 (HepG2; 72 h): 5.00; pEC50 (A-375; 72 h): 5.70; pEC50 (HCT-116 [1]; 72 h): 5.40
CN(C)CCCNc1cc(-c2ccc3ccccc3c2)nc2ccccc12 [XLII-2, N^1,N^1-dimethyl-N^3-[2-(naphtalen-2-yl)quinoline-4-yl]propane-1,3-diamine hydrochloride salt] | 4.72 | 5.52 | 4.96 | < 20 | < 20 | 5.40 | < 20 | –
CC(c1cc(-c2ccccc2)nc2ccccc12)N1CCC(NC(C)(C)C)CC1 (stereo not drawn) [XXIII-2, 2-phenyl-4-{1-[4-N-tert-butylamino-piperidinyl]-eth-1-yl}quinoline dihydrochloride] | – | – | – | < 20 | 20 to 40 | 5.22 | < 20 | pEC50 (HepG2; Homo sapiens, 72 h): 4.74; pEC50 (A-375; Homo sapiens, 72 h): 5.10; pEC50 (HCT-116 [1]; Homo sapiens, 72 h): 4.96
CN(C)CCCNCc1cc(-c2ccccc2)nc2cc(Cl)ccc12 [XLIV-1, N^1,N^1-dimethyl-N^3-(7-chloro-2-phenylquinoline-4-ylmethyl)-propane-1,3-diamine] | 5.00 | 5.40 | 5.22 | – | – | 5.22 | – | –
